Data set [1] deals with human subjects, savory taste. Nature of the data set: Human taste test of low sodium tomato juice. As to conditions: 3 μM cpd; 400 mg Na/8 oz tomato juice. It counts as in vivo. The protocol:
Human taste tests were conducted in order to evaluate the ability of the compounds of the invention to enhance the savory flavor of low sodium tomato juice (which naturally comprises some monosodium glutamate).
The final tomato juice samples for taste testing were prepared so as to comprise 90% (by volume) pre-made low sodium tomato juice stock (pH 4.2, 80˜100 mg Na/8 oz, 16 mM of naturally occurring MSG), 5% (by volume) of stock solutions formulated to produce selected final levels of sodium of final juice, and 5% (by volume) of a stock solution of the compound of the invention. Selected oxalamide compounds of the invention were dissolved in LSB (low sodium phosphate buffer), to provide a stock solution at 20 times the desired final concentration in the final tomato juice. The desired final sodium concentration of the final tomato juice was most experiments 73.6 mM (400 mg sodium in 8 oz. of juice), therefore a stock solution of NaCl was made at 1.48 M NaCl. The pH for the stock solutions was adjusted to 4.2 using a 1 M citric acid solution, and the stock solutions were sonicated to ensure the additive compounds were completely dissolved. […]
Scores were averaged across panelists and sessions, and evaluated using a 2-way ANOVA (factors: panelists and samples) and Duncan's multiple comparison test (alpha=0.05) to determine significant differences in intensity ratings.

Data set [2] deals with human panelists, savory taste. Nature of the data set: Savory taste test with trained human panel (difference from reference). Format: in vivo. The procedure: General Panelist Selection: Basic screening of sensory taste testers: Potential panelists were tested for their abilities to rank and rate intensities of solutions representing the five basic tastes. Panelists ranked and rated intensity of five different concentrations of each of the five following compounds: sucrose (sweet), sodium chloride (salty), citric acid (sour), caffeine (bitter), and monosodium glutamate (savory). In order to be selected for participation in testing, panelists needed to correctly rank and rate samples for intensity, with a reasonable number of errors.
Preliminary Taste Tests: The panelists selected in the above procedure were deemed qualified for performing Preliminary Taste Testing procedures. The preliminary taste tests are used to evaluate new compounds for intensity of basic tastes and off-tastes. A small group of panelists (n=5) taste approximately 5 concentrations of the compound (range typically between 1-100 μM, in half-log cycles, e.g., 1, 3, 10, 30, and 100 μM) in water and in a solution of 12 mM MSG to evaluate enhancement. Panelists rate the five basic tastes (sweet, salty, sour, bitter, and savory) as well as off-tastes (such as chemical, metallic, sulfur) on a labeled magnitude scale. Samples are served in 10 mL portions at room temperature. The purpose of the test is to determine the highest concentration at which there is no objectionable off-taste, and determine if obvious savory taste or enhancement of savory taste exists at any of the concentrations tested.
Trained Panelist Selection: A trained expert panel was used to further evaluate compounds that had been tested with the preliminary taste test.
Panelists for the trained panel were selected from the larger group of qualifying taste panelists. Panelists were further trained on savory taste by ranking and rating experiments using MSG and IMP combinations. Panelists completed a series of ranking, rating, and difference from reference tests with savory solutions. In ranking and rating experiments, panelists evaluated easy MSG concentrations (0, 6, 18, 36 mM) and more difficult MSG concentrations (3, 6, 12, 18 mM MSG) in water.
Compound testing with Trained Panel: Compounds tested by the trained panel were evaluated in difference from reference experiments. […] Test samples were solutions with varying amounts of MSG, IMP, and the compound. Typically, each session compares the reference sample to numerous test samples. […] Compounds were tested against the reference in samples with and without 12 mM MSG. All samples were presented in 10 ml volumes at room temperature. Two sessions were completed for each compound tested to evaluate panel reproducibility.

The text below walks through data of patent US8318947B2, “Comestible compositions comprising high potency savory flavorants, and processes for producing them” (Senomyx, Inc., priority 2006, dated 2012).

One may read the melting point as the temperature of the solid-liquid transition.

Compound `COc1cc(C)ccc1CNC(=O)C(=O)NCCc1ccc(C)cn1` [Example 30, N^1-(2-methoxy-4-methylbenzyl)-N^2-(2-(5-methylpyridin-2-yl)ethyl)oxalamide] showed a melting point of 133.5 to 134 °C. Further, the “Enhancement of the savory taste of 16 mM glutamate (naturally existing) in low sodium tomato juice” value in data set [1] is on record as “by 1.8 to 1.9-fold”. In addition, in data set [2] (compound alone, without MSG), the “Taste Data: cpd concentration as strong as 12 mM MSG” value was 0.3 μM cpd as strong as. The “Taste Data: cpd concentration at which 12 mM MSG + cpd is as strong as 12 mM MSG + 100 μM IMP” value in data set [2] (with 12 mM MSG, reference 12 mM MSG + 100 μM IMP) was 12 mM MSG + 0.3 μM cpd as.
